Experiment [1] addresses GDP-bound KRAS wild-type protein (Homo sapiens, UniProt P01116). As to the kind of experiment: Binding to KRAS by surface plasmon resonance (SPR), dissociation constant KD. Conditions: 1:1 binding model. An outline of the steps: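 Measured at 30°C: SPR with GDP-loaded, E. coli-expressed biotin-Avi RAS captured (~100–300 RU), ascending 75 s compound injections, HBS pH 7.4 with GDP, MgCl2, 4% DMSO. KD from 1:1 fit.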
A general note: In SPR one partner is held on a chip, and binding of the other changes the refractive index at the surface.

In experiment [2] the target is GDP-bound NRAS wild-type protein (Homo sapiens, UniProt P01111). The experiment can be described thus: Binding to NRAS by surface plasmon resonance (SPR), KD and KD ratio to KRAS. Conditions: ratio of KD for GDP-bound NRAS wild-type protein to KD for KRAS. In outline:
(§1)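 Running buffer contained 10 µM GDP and 10 mM MgCl2 to keep RAS in the GDP state, with 4% DMSO at pH 7.4. Compounds were flowed at 100 µL/min in 75 s steps of rising concentration over captured biotin-Avi RAS at 30°C. Sensorgrams were fitted 1:1 for KD.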

The target of experiment [3] is HRAS wild-type protein (Homo sapiens, UniProt P01112). The experiment can be described thus: Binding to HRAS by surface plasmon resonance (SPR), KD and KD ratio to KRAS. Particulars: ratio of KD for HRAS wild-type protein to KD for KRAS. In outline: as §1
The subject of experiment [4] is human lung cancer strain NCI-H441. The experiment can be described thus: NCI-H441 cell proliferation inhibitory activity (CellTiter-Glo, 4 days). Particulars: NCI-H441 cells, 4 days, read-out: NCl-H441 IC50. Type of experiment: cell-based. In outline:
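Step one: dispense the test compound in serial DMSO dilutions. Step three: add the reagent and measure […].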
A general note: In ATP-based viability assays light output follows the ATP content of the culture.

Sequence of GDP-bound KRAS wild-type protein (P01116 1-188 isoform P01116-2): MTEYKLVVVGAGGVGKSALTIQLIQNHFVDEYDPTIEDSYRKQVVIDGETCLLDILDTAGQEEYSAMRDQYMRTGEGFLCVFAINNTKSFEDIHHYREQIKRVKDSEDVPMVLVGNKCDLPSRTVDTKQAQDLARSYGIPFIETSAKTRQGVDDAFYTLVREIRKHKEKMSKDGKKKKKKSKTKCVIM
Sequence of HRAS wild-type protein (P01112 whole entry): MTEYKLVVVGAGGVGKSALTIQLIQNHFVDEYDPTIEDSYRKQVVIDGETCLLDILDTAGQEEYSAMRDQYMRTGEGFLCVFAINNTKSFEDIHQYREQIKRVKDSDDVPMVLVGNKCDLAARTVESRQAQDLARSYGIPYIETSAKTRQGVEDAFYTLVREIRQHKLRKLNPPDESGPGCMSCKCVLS
Sequence of GDP-bound NRAS wild-type protein (P01111 whole entry): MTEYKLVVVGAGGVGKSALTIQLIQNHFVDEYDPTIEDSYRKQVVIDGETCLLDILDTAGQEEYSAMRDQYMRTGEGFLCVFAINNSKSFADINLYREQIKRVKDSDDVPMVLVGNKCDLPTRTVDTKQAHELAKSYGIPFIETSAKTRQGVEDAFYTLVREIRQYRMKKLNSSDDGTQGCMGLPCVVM

What is called Kd is the concentration at which binding is half-saturated. For orientation: IC50 means the point on the concentration scale where inhibition reaches its midpoint. For the compound `CCCOC[C@H]1C(=O)N[C@@H]([C@@H](C)CC)C(=O)N(C)CC(=O)N(C)[C@H]2C/C=C\CCN(C2=O)[C@@H](Cc2ccc(C)cc2)C(=O)N(C)CC(=O)N[C@@H](CCc2ccc(C(F)(F)F)c(OC)c2)C(=O)N2C[C@@H](C)C[C@H]2C(=O)NC2(CC(C)(C)C2)C(=O)N(C)[C@@H](C2CCCC2)C(=O)N(C)[C@H](C(=O)N(C)CC)CC(=O)N1C` [PP2461], the dissociation constant (Kd) in experiment [1] was 0.15 nM. For the same compound, the “NRAS /KRAS” value in experiment [2] was “A (a compound having 10 or more and less than 20 is denoted as A)”. The “HRAS /KRAS” value in experiment [3] was “A (a compound having 10 or more and less than 20 is denoted as A)”. For the same compound, in experiment [4], the IC50 stood at 10.6 nM.

`CCOC[C@H]1C(=O)N[C@@H]([C@@H](C)CC)C(=O)N(C)CC(=O)N(C)[C@H]2C/C=C\CCN(C2=O)[C@@H](CC2CCC(F)(F)CC2)C(=O)N(C)CC(=O)N[C@@H](CCc2cc(F)c(C(F)(F)F)c(F)c2)C(=O)N2C[C@@H](C)C[C@H]2C(=O)NC2(CC(C)(C)C2)C(=O)N(C)[C@@H](C(CC)CC)C(=O)N(C)[C@H](C(=O)N(C)C)CC(=O)N1C` [PP2462] came in with a Kd in experiment [1] of 1.6 nM. Moreover, the “NRAS /KRAS” value in experiment [2] is “A (a compound having 10 or more and less than 20 is denoted as A)”. The “HRAS /KRAS” value in experiment [3] is “A (a compound having 10 or more and less than 20 is denoted as A)”. Moreover, the 50% inhibitory concentration (IC50) in experiment [4] turned out to be 87.2 nM.

Consider `CCCOC[C@H]1C(=O)N[C@@H]([C@@H](C)CC)C(=O)N(C)CC(=O)N(C)[C@H]2C/C=C\CCN(C2=O)[C@@H](CC2CCC(F)(F)CC2)C(=O)N(C)CC(=O)N[C@@H](CCc2ccc(C(F)(F)F)c(OC)c2)C(=O)N2C[C@H](OCC)C[C@H]2C(=O)NC2(CC(C)(C)C2)C(=O)N(C)[C@@H](C(CC)CC)C(=O)N(C)[C@H](C(=O)N(C)C)CC(=O)N1C` [PP2464], for which binding in experiment [1] was put at a Kd of 0.98 nM. In addition, in experiment [2], the “NRAS /KRAS” value is “A (a compound having 10 or more and less than 20 is denoted as A)”. Further, the “HRAS /KRAS” value in experiment [3] was “A (a compound having 10 or more and less than 20 is denoted as A)”. Also, the concentration for half-maximal inhibition (IC50) in experiment [4] came to 66 nM.

For `CCOC[C@H]1C(=O)N[C@@H]([C@@H](C)CC)C(=O)N(C)CC(=O)N(C)[C@H]2C/C=C\CCN(C2=O)[C@@H](Cc2ccc(C)cc2)C(=O)N(C)CC(=O)N[C@@H](CCc2ccc(C(F)(F)F)c(Cl)c2)C(=O)N2C[C@@H](C)C[C@H]2C(=O)NC2(CC(C)(C)C2)C(=O)N(C)[C@@H](C2CCCC2)C(=O)N(C)[C@H](C(=O)N(CC)CC)CC(=O)N1C` [PP2465], in experiment [1], the Kd came out at 0.51 nM. In addition, in experiment [2], the “NRAS /KRAS” value is on record as “AA (a compound having 20 or more is denoted as AA)”. Moreover, the “HRAS /KRAS” value in experiment [3] was “A (a compound having 10 or more and less than 20 is denoted as A)”. In addition, the IC50 in experiment [4] worked out at 39.4 nM.

The compound `CCC(CC)[C@H]1C(=O)N(C)[C@H](C(=O)N(C)C)CC(=O)N(C)[C@@H](COC)C(=O)N[C@@H]([C@@H](C)CC)C(=O)N(C)CC(=O)N(C)[C@H]2C/C=C\CCN(C2=O)[C@@H](CC2CCCCC2)C(=O)N(C)CC(=O)N[C@@H](CCc2ccc(C(F)(F)F)c(OC)c2)C(=O)N2C[C@@H](C)C[C@H]2C(=O)NC2(CC(C)(C)C2)C(=O)N1C` [PP2466] had a Kd in experiment [1] of 3.9 nM. Also, the “NRAS /KRAS” value in experiment [2] was “A (a compound having 10 or more and less than 20 is denoted as A)”. Further, in experiment [3], the “HRAS /KRAS” value was “A (a compound having 10 or more and less than 20 is denoted as A)”. In addition, the IC50 in experiment [4] was 170 nM.

`CCCOC[C@H]1C(=O)N[C@@H]([C@@H](C)CC)C(=O)N(C)CC(=O)N(C)[C@H]2C/C=C\CCN(C2=O)[C@@H](Cc2ccc(C)cc2)C(=O)N(C)CC(=O)N[C@@H](CCc2ccc(C(F)(F)F)c(Cl)c2)C(=O)N2C[C@@H](C)C[C@H]2C(=O)NC2(CC(C)(C)C2)C(=O)N(C)[C@@H](C2CCCC2)C(=O)N(C)[C@H](C(=O)N(C)CC)CC(=O)N1C` [PP2467] returned a dissociation constant Kd in experiment [1] of 0.26 nM. Moreover, the “NRAS /KRAS” value in experiment [2] was “A (a compound having 10 or more and less than 20 is denoted as A)”. In experiment [3], the “HRAS /KRAS” value is “B (a compound having 3 or more and less than 10 is denoted as B)”. Further, in experiment [4], the half-inhibitory concentration (IC50) was found to be 21.8 nM.

The values above are taken from patent publication EP4603105A1, “PHARMACEUTICAL COMPOSITION CONTAINING CYCLIC COMPOUND HAVING SELECTIVE KRAS INHIBITORY EFFECT AGAINST HRAS AND NRAS” (CHUGAI SEIYAKU KABUSHIKI KAISHA, priority 2022, dated 2024).
